Like-named read-outs stand apart in the source and are kept apart here.
Assays:
[1] = test system: mice; conditions: Table 3
[2] = test system: rats that had been fed fructose doses; test: Hypoglycemic activity: lowering of the blood sugar level in rats fed fructose doses; type: in vivo, rat; conditions: 100 mg/kg once a day over 3 days, 24 hours after last administration, vs placebo control group
Procedure: The hypoglycemic activity of some bis(4-hydroxy-phenyl) alkanoic acid derivatives of formulae I and II could be established by administering once a day, over 3 days, 100 mg of the active compound per kg of test animal to rats that had been fed fructose doses and by taking blood samples 24 hours after the last administration in order to determine the blood sugar level by means of an autoanalyzer.
The lowering of the blood sugar content indicated in following Table 4 refers to a control group treated with placebos (blank doses).

[3] = test system: hypertriglyceridemia induced by carbohydrates in male rats; test: Action on the hypertriglyceridemia induced by carbohydrates (fructose) in male rats; type: in vivo; conditions: Rattus norvegicus, 72 h, 3-day oral pre-treatment, vs untreated control, read-out: Change in percentage of hypertriglyceridemia induced by carbohydrates
[4] = in vivo; conditions: mouse, po
[5] = test system: normolipemic rats; test: Reduction of serum lipid values in normolipemic rats (8 days oral); type: in vivo, rat; conditions: 8 doses, male rats; for serum cholesterol, change in percentage (A: referred to the initial value) / serum triglyceride, change in percentage (A: referred to the initial value): column A; for serum cholesterol, change in percentage (B: referred to the untreated control group) / serum triglyceride, change in percentage (B: referred to the untreated control group): column B
Procedure: 1. Male rats having a normal serum lipid content were treated for eight days with different daily doses mentioned in Table 1. The values given in that Table stand for a change in the serum concentrations of certain lipid classes. The doses administered per os by means of an esophageal sound were 100, 30 and 10 mg/kg/day. Generally, prior to and after the treatment, blood samples were taken and the concentration of cholesterol in the serum was determined according to the method of Lauber and Richterich and that of triglycerides according to the method of Eggstein and Kreutz. In the examples of the following Table 1, the changes in the serum lipid values due to the treatment with the substances of the invention are defined as follows:
a. The changes in percent in the final value of the treated group, referred to the initial value of the treated group, the initial value being 100 percent, and
b. the change in the final value of the treated group, referred to the final value of an accompanying untreated control group, the untreated control group's value being defined as 100 percent. Thus, the value given in columns A is the change in percentage referred to the initial value, whereas the value given in columns B is the change in percentage of the treated group, referred to the untreated control group.

[6] = test system: dietetic-medicamentous hyperlipemia of male rats; test: Action on the dietetic-medicamentous hyperlipemia of male rats; type: in vivo; conditions: Rattus norvegicus, po, 192 h, 100 mg/kg/day p.o., 8 days, male rats on cholesterol diet
From the text: All the animals were fed with a diet food containing 2% of cholesterol, 2% of sodium cholate, 0.3% of methyl-thiouracil, 20% of coco fat and 44% of cane sugar. The serum lipid concentration of the animals treated with the compounds of the invention was compared to that of an untreated control group on the same diet, which diet causes the serum cholesteral concentration to rise within 1 week to about 10 times the initial value, that of the serum triglycerides to 3 times and that of the phospho-lipids in the serum to 4 times the initial value. The lipid phosphorus was determined according to the method of Messrs. Boehringer Mannheim W. Germany. At the same time as the diet was offered, the compounds of the invention were administered once a day to groups of rats, each containing 10 animals, over a period of 8 days by means of an esophageal sound. The change in percentage in the serum lipid concentration as compared to the control group (diet without active substance) is indicated in Table 2.

[7] = read-out: serum cholesterol, change in percentage as compared to the control group
[8] = read-out: serum lipid phosphorus, change in percentage as compared to the control group
[9] = read-out: serum triglyceride, change in percentage as compared to the control group

| Compound | LD50 mice p.o. [1] | lowering of the blood sugar level in per cent [2] | change in vivo at 30 mg/kg [3] | change in vivo at 100 mg/kg [3] | LD50 [4] | serum cholesterol, change in percentage (A: referred to the initial value) ([5]; 10 mg/kg/day p.o.) | serum cholesterol, change in percentage (B: referred to the untreated control group) ([5]; 10 mg/kg/day p.o.) | serum triglyceride, change in percentage (B: referred to the untreated control group) ([5]; 10 mg/kg/day p.o.) | serum cholesterol, change in percentage (A: referred to the initial value) ([5]; 30 mg/kg/day p.o.) | serum triglyceride, change in percentage (A: referred to the initial value) ([5]; 30 mg/kg/day p.o.) | serum cholesterol, change in percentage (B: referred to the untreated control group) ([5]; 30 mg/kg/day p.o.) | serum triglyceride, change in percentage (B: referred to the untreated control group) ([5]; 30 mg/kg/day p.o.) | serum cholesterol, change in percentage (A: referred to the initial value) ([5]; 100 mg/kg/day p.o.) | serum triglyceride, change in percentage (A: referred to the initial value) ([5]; 100 mg/kg/day p.o.) | serum cholesterol, change in percentage (B: referred to the untreated control group) ([5]; 100 mg/kg/day p.o.) | serum triglyceride, change in percentage (B: referred to the untreated control group) ([5]; 100 mg/kg/day p.o.) | change in vivo at 100 mg/kg [6, 7] | change in vivo at 100 mg/kg [6, 8] | change in vivo at 100 mg/kg [6, 9] | serum triglyceride, change in percentage (A: referred to the initial value) ([5]; 10 mg/kg/day p.o.) |
| --- | --- | --- | --- | --- | --- | --- | --- | --- | --- | --- | --- | --- | --- | --- | --- | --- | --- | --- | --- | --- |
| CC(C)(C)c1cc(C(C(=O)O)c2cc(C(C)(C)C)c(O)c(C(C)(C)C)c2)cc(C(C)(C)C)c1O [Example 3, Bis(4'-hydroxy-3',5'-di-tert.butyl-phenyl)ethanoic acid] | 6000 to 8000 mg/kg | -15 per cent | -36% | -37% | 6000 to 8000 mg/kg | -24% | -21% | -29% | -32% | -39% | -22% | -46% | -61% | -70% | -52% | -60% | -23% | -26% | -44% |  |
| CCCCOC(=O)CC(C)(c1ccc(O)c(C(C)(C)C)c1)c1ccc(O)c(C(C)(C)C)c1 [Example 7, 3,3-bis(4'-hydroxy-3'-tert.-butyl-phenyl)butanoic acid butyl ester] | > 8000 mg/kg | -24 per cent | -19% | -35% | > 8000 mg/kg |  |  |  |  |  |  |  | -29% | -53% | -26% | -23% | -30% | -30% | -34% |  |
| CCCCOC(=O)CCC(C)(c1ccc(O)c(C(C)(C)C)c1)c1ccc(O)c(C(C)(C)C)c1 [Example 15, 4,4-Bis(4'-hydroxy-3'-tert.-butyl-phenyl)pentanoic acid n-butyl ester] | > 8000 mg/kg |  |  | -28% | > 8000 mg/kg |  |  | -34% | -13% | -32% | -10% | -37% | -37% | -36% | -20% | -13% | -57% | -53% | -34% | -20% |
